O=C(O)C=CC(=O)O.OCCOCCN1CCN(C2=Nc3ccccc3Sc3ccccc32)CC1.OCCOCCN1CCN(C2=Nc3ccccc3Sc3ccccc32)CC1
solubility (mole fraction)
Conditions	in DMF	in acetone	in ethanol	in ethyl acetate	in isobutanol	in isopropanol	in methanol	in n-butanol	in water
283.15 K	0.00309	0.000106	0.000191	8.13e-05	6.85e-05	0.000107	0.000388	0.000154	4.98e-05
288.15 K	0.00369	0.000146	0.000244	9.87e-05	8.53e-05	0.000126	0.000453	0.000216	5.57e-05
293.15 K	0.00419	0.000178	0.000325	0.000142	0.000119	0.000168	0.000545	0.000292	6.73e-05
298.15 K	0.00491	0.000217	0.000408	0.000176	0.000162	0.000203	0.000696	0.000393	7.39e-05
303.15 K	0.00598	0.000251	0.000502	0.000218	0.000204	0.000251	0.000879	0.000502	7.99e-05
308.15 K	0.00684	0.000294	0.000636	0.000255	0.000251	0.000289	0.00121	0.000619	9.31e-05
313.15 K	0.0084	0.000345	0.000838	0.000306	0.000307	0.00036	0.00163	0.000792	0.000108
318.15 K	0.0102	0.000395	0.0011	0.000365	0.000395	0.000494	0.00202	0.000988	0.000131
323.15 K	0.0123	0.000475	0.00135	0.000411	0.000481	0.000716	0.00245	0.00118	0.000162
